Measured values published in US20240309018A1, “THIAZOLE-LACTAM-SPIROHETEROCYCLIC COMPOUNDS AND APPLICATIONS THEREOF” (D3 BIO (WUXI) CO., LTD, priority 2021, published 2024).
In brackets after ≈: the same amount, converted by molar mass. Like-named read-outs stand apart in the source and are kept apart here.

Key:
ERK1 kinase = ERK1 kinase (Homo sapiens (Human), UniProt P27361); assay: ERK1 in vitro kinase activity assay (33P-ATP, MBP substrate, filter-binding); type: biochemical
Method: The ability of the compound to inhibit ERK1 and ERK2 kinase activity was measured.
20 mM Hepes (pH 7.5), 10 mM MgCl2, 1 mM ethylenebis(oxyethylenenitrilo)tetraacetic acid (EGTA), 0.02% Brij35, 0.02 mg/mL bovine serum albumin (BSA), 0.1 mM Na3VO4, 2 mM dithiothreitol (DTT), 1% DMSO.
The assay compound was dissolved in 100% DMSO to prepare a stock solution of specific concentration. The compound was serially diluted in DMSO solution using Integra Viaflo Assist smart pipette.
• 1) The substrate MBP was prepared in freshly prepared reaction buffer; • 2) ERK1 (or ERK2) kinase was added to the above-mentioned MBP solution and mixed gently; • 3) The compound dissolved in 100% DMSO was added to the kinase reaction system using ultrasound technology (Echo550; nanoliter range), and the mixture was incubated at room temperature for 20 minutes; • 4) 33P-ATP (specific concentration of […]) was added to the reaction system, and the reaction was started at this time; • 5) The mixture was incubated at room temperature for 2 hours; • 6) The amount of radioactivity was detected by filter-binding method; • 7) ERK1 (or ERK2) kinase activity was calculated as the ratio of the remaining kinase activity in the assay sample to the kinase activity of the control group (treated by DMSO). Curve was fitted using Prism (GraphPad software) and IC50 values were calculated. • 5.

[1] = Solubility study (HPLC-UV, phosphate buffers); type: physicochemical; details: 25 °C, aqueous buffer, kinetic from dmso stock, 25±2° C., 2% DMSO, theoretical maximum 200 μM
Method: The solubility of the compound was determined to evaluate the solubility property of the compound.
• 1) Buffer A (pH 2.0): 50 mM phosphate buffer, pH 2.0; Buffer B (pH 6.5): 50 mM phosphate buffer, pH 6.5: Buffer C (pH 7.4): 50 mM phosphate buffer, pH 7.4; • 2) Preparation of standard solution: • a) 50% acetonitrile solution and 50% buffer solution were mixed to obtain a diluent; • b) 10 mM (10 μL/compound) compound stock solution was added to the diluent (490 μL/compound) to obtain 200 μM detection standard solution; • c) The 200 μM UV detection standard solution was diluted with 10-fold and 200-fold volume of diluents to obtain 20 μM and 1 μM UV standard solutions, respectively; • d) UV standard solutions of 1 μM, 20 µM, and 200 μM were used as standard solutions for solubility assays.
• 1) The compound was dissolved in DMSO to prepare a 10 mM stock solution. […] The pH of the corresponding solubility solutions was 2.0, 6.5 and 7.4, respectively. The theoretical maximum concentration of the assay compound is 200 μM with 2% DMSO; • 3) The plate was shaken in a shaker at room temperature (25±2° C.) at 600 rpm for 24 hours; • 4) 200 μL of the solution was pipetted from the 96-well plate, filtered with suction by a vacuum suction filtration device, and transferred into a new 96-well plate as an assay sample; • 5) The compound concentration was determined using HPLC-UV.
• 6) Three UV standard solutions from low concentration to high concentration (1 μM, 20 μM, 200 μM) were injected into HPLC, and then the assay sample of the compound to be assayed was injected; • 7) The UV chromatographic peaks were integrated, and the solubility of the sample was calculated.

[2] = test system: human melanoma A375 cells; assay: In vivo efficacy in subcutaneous xenograft tumor model of human melanoma A375; details: PO, BID, day 21, BALB/c nude mouse A375 xenograft
Method: The anti-tumor effect of WX001 was evaluated using a subcutaneous xenograft tumor model of human melanoma A375 cells in nude mouse.
• Species: mouse • Strain: BALB/c nude mouse • Age: 6-8 weeks old • Gender: female • Body weight: 18-22 grams • Supplier: Vital River Laboratory Animal Technology Co., Ltd.
• 1) Assay cells and culture: Human melanoma A375 cells were cultured in monolayer in vitro. The culture conditions were DMEM medium plus 10% fetal bovine serum, and a 37° C. 5% CO2 incubator. Routine digestion with trypsin-EDTA was performed twice a week for passage. When the cell saturation was 80%-90% and the amount reached the requirement, the cells were harvested, counted, and inoculated: • 2) Tumor tissue inoculation and grouping: 0.1 mL (5×10^5) of A375 cells were subcutaneously inoculated into the right armpit of each mouse. When the average tumor volume reached 170 mm^3, the animals were randomly divided into 4 groups and the administration was started.
• 3) Daily observation of assay animals: The development of this assay protocol and any modifications were evaluated and approved by the Institutional Animal Care and Use Committee (IACUC). […] Animals were monitored daily for health and death. […] Animal deaths and side effects in each group were recorded based on the number of animals in each group. • 4) Formulation of assay compound • a) Vehicle group: 5% DMSO+95% (20% HP-β-CD). • b) Assay compound group: A quantitative amount of the assay compound was weighed in a formulation bottle. […] A corresponding volume of 20% HP-β-CD was added and then the mixture was vortexed to obtain a homogeneous suspension. • 5) Tumor measurement and assay indicator: • a) Tumor diameter was measured twice a week with a vernier caliper. The calculation formula of tumor volume was: TV=1/2×a×b^2, wherein a and b represent the long and short diameters of tumor, respectively: • b) The tumor-inhibitory efficacy of the compound was evaluated by TGI (%). […]

Sequence of ERK1 kinase (P27361 whole entry): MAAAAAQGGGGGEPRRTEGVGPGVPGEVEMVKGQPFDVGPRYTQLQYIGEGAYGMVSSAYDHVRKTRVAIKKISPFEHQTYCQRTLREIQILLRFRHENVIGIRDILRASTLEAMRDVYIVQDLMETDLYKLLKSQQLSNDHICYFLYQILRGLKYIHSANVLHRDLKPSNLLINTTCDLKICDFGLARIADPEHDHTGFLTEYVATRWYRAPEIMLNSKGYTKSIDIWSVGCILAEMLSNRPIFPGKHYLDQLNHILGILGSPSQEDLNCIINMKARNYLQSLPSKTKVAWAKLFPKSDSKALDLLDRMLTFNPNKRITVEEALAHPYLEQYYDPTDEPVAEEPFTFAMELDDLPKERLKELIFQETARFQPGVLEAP

## Cc1cccc(CN2C(=O)c3nc(-c4nc(Nc5ccnn5C)ncc4C)sc3C23COC3)n1 [WX001]
ERK1 kinase
  IC50: 1.4 nM
[1]; 50 mM phosphate buffer pH 2.0, 24 hours, read-out: Solubility at pH = 2.0
  solubility at 24 h: 200 µM (≈ 94.7 µg/mL)
[1]; 50 mM phosphate buffer pH 6.5, 24 hours, read-out: Solubility at pH = 6.5
  solubility at 24 h: 2.94 µM (≈ 1.4 µg/mL)
[1]; 50 mM phosphate buffer pH 7.4, 24 hours, read-out: Solubility at pH = 7.4
  solubility at 24 h: 2.64 µM (≈ 1.25 µg/mL)
[2]; 12.5 mg/kg
  TGI: 45%
[2]; 25 mg/kg
  TGI: 58%
[2]; 50 mg/kg
  TGI: 102%
